From PMC7731667 (Journal of medicinal chemistry, 2020)

Assays:
[1] = In vivo pharmacokinetics in mice; set-up: species or system mouse; settings: for time until brain level fell below target therapeutic level: mice, single 10 mg/kg IV dose, target 30 ng/g for 11 and 13B, 120 ng/g for 12; for clearance: male, CD-1, mouse, plasma, iv, 10 mg/kg
[2] = Mouse liver microsome stability; assay type: in vitro ADME; settings: mouse liver microsomes
Human plasma stability = assay type: in vitro ADME; settings: 120 min
Mouse plasma stability = assay type: in vitro ADME; settings: 120 min
[3] = Human liver microsome stability; assay type: in vitro ADME; settings: human liver microsomes
[4] = pH 7.4

Row | time until brain level fell below target therapeutic level [1] | Hplasma stability (Human plasma stability) [% @ 120 min] | Mplasma stability (Mouse plasma stability) [% @ 120 min] | Molecule | further results
1 | greater than 2 hour | – | – | O=C(CCCCCc1ccccc1)N[C@H]1CC[C@H](O)CC1 [Compound 13B, N-(trans-4-hydroxycyclohexyl)-6-phenylhexanamide] | –
2 | 1 h | – | – | CC1CC(O)CCC1NC(=O)NCCCCc1ccccc1 (centres unmarked) [Compound 11, 1-(4-hydroxy-2-methylcyclohexyl)-3-(4-phenylbutyl)urea] | clearance [1]: 63.9 mL/min/kg
3 | 1 h | – | – | O=C(NCCCCc1ccccc1)NC1CCC(O)CC1 (centres unmarked) [Compound 12, 1-(4-hydroxycyclohexyl)-3-(4-phenylbutyl)urea] | clearance [1]: 29.5 mL/min/kg
4 | – | 95 | 94 | CC1CCCCC1NC(=O)NCCSc1nnc(C2CC2)n1-c1ccccc1 (centres unmarked) [Compound 1, 1-(2-((5-cyclopropyl-4-phenyl-4H-1,2,4-triazol-3-yl)thio)ethyl)-3-(2-methylcyclohexyl)urea, reference compound] | half-life at 1 μM [2]: 2 min
5 | – | 95 | 100 | CC1CCCCC1NC(=O)NCCCc1nnc(C2CC2)n1-c1ccccc1 (centres unmarked) [Compound 2, 1-(3-(5-cyclopropyl-4-phenyl-4H-1,2,4-triazol-3-yl)propyl)-3-(2-methylcyclohexyl)urea] | –
6 | – | – | – | N-(4-fluoro-4-methylcyclohexyl)-6-phenylhexanamide [Compound 18] | t1/2 MLM [2]: 2.8 min; t1/2 HLM [3]: 10.2 min
7 | – | 98 | 84 | 1-(3-(5-cyclopropyl-4-phenyl-4H-1,2,4-triazol-3-yl)propyl)-3-(2-methylcyclohexyl)urea [Compound 3] | t1/2 MLM [2]: 3 min; t1/2 HLM [3]: 8 min; Solubility [4]: 24
